Results from PMC4633020 (Journal of medicinal chemistry, 2015).

Legend:
E. faecium NCTC 7171 = test: MIC, broth microdilution; assay type: cell-based, Enterococcus faecium; conditions: for MIC: Enterococcus faecium, NCTC7171, E. faecium NCTC 7171; for antibacterial activity against E. faecium (in words): SAR discussion, E. faecium NCTC 7171
[1] = In vitro metabolic stability in human liver S9; assay type: in vitro ADME; conditions: calculated from in vitro half-life in human liver S9
[2] = Plasma-protein binding, equilibrium dialysis; assay type: in vitro ADME; conditions: human plasma
[3] = marketed antibiotics; cited from earlier work

CC1=C(C(N)=O)C(c2ccc(OC(C)C)cc2)n2nc(SCc3ccccc3)nc2N1 (stereo not shown) [Compound 10, 2-(Benzylthio)-7-(4-isopropoxyphenyl)-5-methyl-4,7-dihydro-[1,2,4]triazolo[1,5-a]pyrimidine-6-carboxamide]
MIC (E. faecium NCTC 7171): ≤ 8 µg/mL | Apparent intrinsic clearance [1]: 10.9 mLmin^−1kg^−1 | Plasma-protein binding (in words) [2]: high

CCc1ccc(C2C(C(N)=O)=C(C)Nc3nc(SCc4ccccc4)nn32)cc1 (stereo not shown) [Compound 4]
MIC (E. faecium NCTC 7171): ≤ 8 µg/mL

teicoplanin
plasma protein binding [3]: > 91%

CC1=C(C(N)=O)C(c2ccc(N(C)C)cc2)n2nc(SCc3ccc(OC(F)(F)F)cc3)nc2N1 (stereo not shown) [Compound 81]
antibacterial activity against E. faecium (in words) (E. faecium NCTC 7171): no activity

CC1=C(C(N)=O)C(c2ccccc2C(F)(F)F)n2nc(SCc3ccccc3)nc2N1 (stereo not shown) [Compound 27]
antibacterial activity against E. faecium (in words) (E. faecium NCTC 7171): inactive

COc1ccc(C2C(C(N)=O)=C(C)Nc3nc(SCc4ccccc4)nn32)cc1 (stereo not shown) [Compound 7]
antibacterial activity against E. faecium (in words) (E. faecium NCTC 7171): devoid of activity

CCSc1ccc(C2C(C(N)=O)=C(C)Nc3nc(SCc4ccccc4)nn32)cc1 (stereo not shown) [Compound 13, 2-(Benzylthio)-7-(4-ethylthiophenyl]-5-methyl-4,7-dihydro[1,2,4]-triazolo[1,5-a]pyrimidine-6-carboxamide]
improvement of the anti-E. faecium activity (E. faecium NCTC 7171; compared to the 4-OCH3 (7) and 4-SMe (12) derivatives): 32 fold | Apparent intrinsic clearance [1]: <10.4 mLmin^−1kg^−1 | Plasma-protein binding (in words) [2]: high

CC1=C(C(=O)Nc2ccccc2)C(c2ccc(N(C)C)cc2)n2nc(SCc3ccccc3)nc2N1 (stereo not shown) [Compound 51]
antibacterial activity against E. faecium (in words) (E. faecium NCTC 7171): slight reduction of activity

CC1=C(C(N)=O)C(c2ccc(F)cc2)n2nc(SCc3ccccc3)nc2N1 (stereo not shown) [Compound 22]
antibacterial activity against E. faecium (in words) (E. faecium NCTC 7171): did not show any activity

CSc1ccc(C2C(C(N)=O)=C(C)Nc3nc(SCc4ccccc4)nn32)cc1 (stereo not shown) [Compound 12]
antibacterial activity against E. faecium (in words) (E. faecium NCTC 7171): devoid of activity

CC1=C(C(N)=O)C(c2ccccc2)n2nc(SCc3ccccc3)nc2N1 (stereo not shown) [Compound 2]
antibacterial activity against E. faecium (in words) (E. faecium NCTC 7171): loss of antibacterial activity

CC1=C(C(N)=O)C(c2ccc(C(C)C)cc2)n2nc(SCCNC(=O)OCc3ccccc3)nc2N1 (stereo not shown) [Compound 73]
antibacterial activity against E. faecium (in words) (E. faecium NCTC 7171): not tolerated

COc1ccc(C2C(C(N)=O)=C(C)Nc3nc(SCc4ccccc4)nn32)cc1O (stereo not shown) [Compound 8]
antibacterial activity against E. faecium (in words) (E. faecium NCTC 7171): loss of antimicrobial activity

Cc1onc(-c2ccccc2)c1C(=O)N[C@@H]1C(=O)N2[C@@H]1SC(C)(C)[C@@H]2C(=O)O [oxacillin]
plasma protein binding [3]: > 91%

CN(C)c1ccc(C2C3=C(CCCC3=O)Nc3nc(SCc4ccccc4)nn32)cc1 (stereo not shown) [Compound 46]
antibacterial activity against E. faecium (in words) (E. faecium NCTC 7171): abolished activity

CC1=C(C(N)=O)C(C2CCCCC2)n2nc(SCc3ccccc3)nc2N1 (stereo not shown) [Compound 42]
antibacterial activity against E. faecium (in words) (E. faecium NCTC 7171): devoid of activity

CC1=C(C(N)=O)C(c2ccc(OC(F)(F)F)cc2)n2nc(SCc3ccccc3)nc2N1 (stereo not shown) [Compound 11]
MIC (E. faecium NCTC 7171): ≤ 8 µg/mL | antibacterial activity against E. faecium (in words) (E. faecium NCTC 7171): retained activity

CCCCCCCCCC(=O)N[C@@H](Cc1c[nH]c2ccccc12)C(=O)N[C@H](CC(N)=O)C(=O)N[C@@H](CC(=O)O)C(=O)N[C@@H]1C(=O)NCC(=O)N[C@@H](CCCN)C(=O)N[C@@H](CC(=O)O)C(=O)N[C@H](C)C(=O)N[C@@H](CC(=O)O)C(=O)NCC(=O)N[C@H](CO)C(=O)N[C@@H]([C@H](C)CC(=O)O)C(=O)N[C@@H](CC(=O)c2ccccc2N)C(=O)O[C@@H]1C [daptomycin]
plasma protein binding [3]: > 91%

CC1=C(C(N)=O)C(c2ccc(C(F)(F)F)cc2)n2nc(SCc3ccccc3)nc2N1 (stereo not shown) [Compound 21]
MIC (E. faecium NCTC 7171): ≤ 8 µg/mL | antibacterial activity against E. faecium (in words) (E. faecium NCTC 7171): retained activity

CC1=C(C(N)=O)C(c2ccc(N(C)C)cc2)n2nc(SCc3ccc(SC(F)(F)F)cc3)nc2N1 (stereo not shown) [Compound 82]
antibacterial activity against E. faecium (in words) (E. faecium NCTC 7171): as active as compound 1

CC1=C(C(N)=O)C(c2ccc(N(C)C)cc2)n2nc(Sc3ccccn3)nc2N1 (stereo not shown) [Compound 76]
antibacterial activity against E. faecium (in words) (E. faecium NCTC 7171): loss of activity

CCN(CC)c1ccc(C2C(C(N)=O)=C(C)Nc3nc(SCc4ccccc4)nn32)cc1 (stereo not shown) [Compound 17]
MIC (E. faecium NCTC 7171): ≤ 8 µg/mL

CCN(CC)CCOc1ccc(C2C(C(N)=O)=C(C)Nc3nc(SCc4ccccc4)nn32)cc1 (stereo not shown) [Compound 20]
antibacterial activity against E. faecium (in words) (E. faecium NCTC 7171): no activity

CC1=C(C(N)=O)C(c2ccc(Cl)cc2)n2nc(SCc3ccccc3)nc2N1 (stereo not shown) [Compound 23]
antibacterial activity against E. faecium (in words) (E. faecium NCTC 7171): did not show any activity

CC1=C(C(N)=O)C(c2ccc(O)cc2)n2nc(SCc3ccccc3)nc2N1 (stereo not shown) [Compound 6]
antibacterial activity against E. faecium (in words) (E. faecium NCTC 7171): loss of antimicrobial activity

COc1ccc(C2C(C(N)=O)=C(C)Nc3nc(SCc4ccccc4)nn32)cc1OC (stereo not shown) [Compound 9]
antibacterial activity against E. faecium (in words) (E. faecium NCTC 7171): loss of antimicrobial activity

CO[C@H]1/C=C/O[C@@]2(C)Oc3c(C)c(O)c4c(O)c(c(/C=N/N5CCN(C)CC5)c(O)c4c3C2=O)NC(=O)/C(C)=C\C=C\[C@H](C)[C@H](O)[C@@H](C)[C@@H](O)[C@@H](C)[C@H](OC(C)=O)[C@@H]1C [rifampicin]
plasma protein binding [3]: > 91%

CC1=C(C(N)=O)C(c2ccc(N(C)C)cc2)n2nc(SCCNC(=O)OCc3ccccc3)nc2N1 (stereo not shown) [Compound 72]
antibacterial activity against E. faecium (in words) (E. faecium NCTC 7171): not tolerated

CCOC(=O)C1=C(C)Nc2nc(SCc3ccccc3)nn2C1c1ccc(N(C)C)cc1 (stereo not shown) [Compound 43]
antibacterial activity against E. faecium (in words) (E. faecium NCTC 7171): lost antimicrobial activity

CC1=C(C(N)=O)C(c2ccc(N(C)C)cc2)n2nc(SCc3ccncc3)nc2N1 (stereo not shown) [Compound 75]
antibacterial activity against E. faecium (in words) (E. faecium NCTC 7171): loss of activity

CNC(=O)C1=C(C)Nc2nc(SCc3ccccc3)nn2C1c1ccc(N(C)C)cc1 (stereo not shown) [Compound 45]
antibacterial activity against E. faecium (in words) (E. faecium NCTC 7171): slight reduction of activity

CC1=C(C(N)=O)C(c2ccc(N(C)C)cc2)n2nc(SCc3ccc([N+](=O)[O-])cc3)nc2N1 (stereo not shown) [Compound 83, 2-(4-Nitrobenzylthio)-7-(4-dimethylaminophenyl)-5-methyl-4,7-dihydro[1,2,4]triazolo[1,5-a]pyrimidine-6-carboxamide]
antibacterial activity against E. faecium (in words) (E. faecium NCTC 7171): as good as compound 16 | Apparent intrinsic clearance [1]: <10.4 mLmin^−1kg^−1 | Plasma-protein binding (in words) [2]: high

CC1=C(C(N)=O)C(c2ccc(C#N)cc2)n2nc(SCc3ccccc3)nc2N1 (stereo not shown) [Compound 24]
antibacterial activity against E. faecium (in words) (E. faecium NCTC 7171): retained activity

CC1=C(C(N)=O)C(c2ccc(N(C)C)cc2)n2nc(SCc3ccc(C(F)(F)F)cc3)nc2N1 (stereo not shown) [Compound 80]
antibacterial activity against E. faecium (in words) (E. faecium NCTC 7171): no activity

CC1=C(C(N)=O)C(c2ccc(C(=O)O)cc2)n2nc(SCCNC(=O)OCc3ccccc3)nc2N1 (stereo not shown) [Compound 74]
antibacterial activity against E. faecium (in words) (E. faecium NCTC 7171): not tolerated
